The text below walks through data of publication PMC6287599, “2,6-Bis(2-Benzimidazolyl)Pyridine (BBP) Is a Potent and Selective Inhibitor of Small Conductance Calcium-Activated Potassium (SK) Channels” (Frontiers in Pharmacology, 2018).

Read-outs that look alike come from different tables or passages of the source. Positions of bridges follow the written chain, without caps; N, C: chain ends. No end group written: not given here.

Assay [1] has as its target T1, rSK3 H491N (Rattus norvegicus, UniProt P70605, H486N).
T1 construct: expressed in transfected cells; host or cells: HEK293 (transient, co-transfected with eGFP)
Particulars: cited from earlier work.

Assay [2] addresses T2, hBK (Homo sapiens, UniProt Q12791).
T2 construct: expressed in transfected cells; host or cells: HEK293 (transient, co-transfected with eGFP)
In words: Manual whole cell patch clamp, HEK293 transiently transfected with hBK. Format: cell-based. The following applies: paxilline 3 μM, after BBP 1 μM. Here is the method:
HEK293 cells were transiently co-transfected with the plasmid of interest (hBK, hSK1, hSK2, hSK3 WT, rSK3 H491N, or hIK) and eGFP using standard Lipofectamine™ 2000 (Thermo Fisher Scientific, Waltham, Massachussets, USA) transfection protocols. After transfection, cells were incubated overnight before the experiments.
Manual patch clamp experiments were performed at room temperature in the whole cell configuration with a HEKA EPC9 amplifier and the Patchmaster software (HEKA Elektronik, Ludwigshafen, Germany). All currents were elicited every 2 s using an incremental 200 ms voltage-ramp protocol starting at −80 mV and finishing at +80 mV from a holding potential of 0 mV. […]
To assess the effect of BBP on other calcium-activated potassium channels (hBK, hSK3 WT, rSK3 H491N, and hIK), each individual current was first normalized to its cell size using membrane's capacitance (pA/pF) before statistical analysis. […] Statistical significance between saline and the effect of both BBP and the corresponding reference compound was determined for each channel using one-way ANOVA analysis. […]
After testing BBP on the three SK channel subtypes, we decided to explore whether other calcium-activated potassium channels were affected by the compound. […] Finally, a positive control was used to inhibit the remaining current and quantify the total effect of BBP. […]
(In general: Patch clamp records ionic current or voltage across a cell membrane.)

T2 sequence (Q12791 whole entry): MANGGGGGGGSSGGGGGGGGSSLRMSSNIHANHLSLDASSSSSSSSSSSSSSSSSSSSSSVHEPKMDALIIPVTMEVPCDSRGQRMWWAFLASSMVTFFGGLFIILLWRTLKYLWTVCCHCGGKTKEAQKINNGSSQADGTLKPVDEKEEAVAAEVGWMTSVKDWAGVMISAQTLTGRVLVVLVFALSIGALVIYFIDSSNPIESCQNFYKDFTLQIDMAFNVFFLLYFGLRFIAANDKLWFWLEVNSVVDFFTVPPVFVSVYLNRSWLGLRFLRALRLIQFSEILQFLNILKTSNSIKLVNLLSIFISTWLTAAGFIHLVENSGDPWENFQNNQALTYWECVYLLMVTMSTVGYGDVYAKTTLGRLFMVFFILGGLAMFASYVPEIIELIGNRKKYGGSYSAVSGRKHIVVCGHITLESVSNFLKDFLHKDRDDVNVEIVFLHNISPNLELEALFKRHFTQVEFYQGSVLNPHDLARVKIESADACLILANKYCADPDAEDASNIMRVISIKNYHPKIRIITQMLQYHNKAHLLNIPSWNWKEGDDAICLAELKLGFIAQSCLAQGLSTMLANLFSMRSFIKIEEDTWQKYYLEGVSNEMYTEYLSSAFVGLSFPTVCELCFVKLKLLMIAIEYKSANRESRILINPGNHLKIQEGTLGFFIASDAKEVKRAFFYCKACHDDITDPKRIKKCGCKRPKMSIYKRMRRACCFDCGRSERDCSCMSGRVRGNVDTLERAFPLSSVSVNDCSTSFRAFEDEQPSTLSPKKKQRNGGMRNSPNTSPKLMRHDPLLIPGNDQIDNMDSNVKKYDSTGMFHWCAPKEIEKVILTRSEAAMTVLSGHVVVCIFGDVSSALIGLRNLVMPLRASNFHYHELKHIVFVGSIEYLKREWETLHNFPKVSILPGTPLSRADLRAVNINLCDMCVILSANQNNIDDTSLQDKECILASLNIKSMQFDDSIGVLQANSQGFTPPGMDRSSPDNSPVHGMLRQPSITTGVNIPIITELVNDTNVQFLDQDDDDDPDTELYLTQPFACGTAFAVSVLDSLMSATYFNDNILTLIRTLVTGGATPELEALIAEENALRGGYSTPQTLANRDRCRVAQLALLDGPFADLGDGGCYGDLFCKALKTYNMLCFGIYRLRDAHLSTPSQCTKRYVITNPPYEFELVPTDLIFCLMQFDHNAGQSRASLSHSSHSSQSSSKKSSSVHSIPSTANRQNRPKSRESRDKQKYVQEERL

For `c1cc2cc(c1)C[n+]1ccc(c3ccccc31)NCc1ccc(cc1)CNc1cc[n+](c3ccccc13)C2` [UCL1684], in assay [1], the “Sensitivity of rSK3 H491N mutant to blocker” value (“Sensitivity” below) is recorded as “insensitive”.

For `COc1cc2c3cc1Oc1cc(ccc1O)C[C@@H]1c4c(cc(OC)c(O)c4Oc4ccc(cc4)C[C@@H]3N(C)CC2)CC[N+]1(C)C` [D-tubocurarine], the “Sensitivity” value in assay [1] (ref Lamy et al., 2010) was “insensitive”.

As to `CC(C)(O)[C@H]1O[C@H]2CC[C@@]3(C)[C@@](O)(CC[C@H]4Cc5c([nH]c6ccccc56)[C@@]43C)C2=CC1=O` [paxilline, reference compound], in assay [2], the “Effect on remaining hBK current (reference)” value is given as “totally inhibited”.

“apamin (CNCKAPETALCARRCQQH-NH2; disulfide 1-11, 3-15; ends not checked; UniProt P01500 28-45, looked up)”: in assay [1] (ref Lamy et al., 2010), the “Sensitivity” value is “insensitive”.
